Test results as given in PMC7370187, “Screening of an Epigenetic Drug Library Identifies 4-((hydroxyamino)carbonyl)-N-(2-hydroxyethyl)-N-Phenyl-Benzeneacetamide that Reduces Melanin Synthesis by Inhibiting Tyrosinase Activity Independently of Epigenetic Mechanisms” (International Journal of Molecular Sciences, 2020).
Entries after “also recorded” stand apart in the source; their conditions may differ.

What was measured:
murine TYR = molecular target: T1, murine TYR (Mus musculus, UniProt P11344); experiment: In vitro TYR catalytic activity assay, lysate of α-MSH-stimulated B16F10 cells; format: biochemical
T1 construct: One is the protein extract of B16F10 cells stimulated by α-MSH and thus expresses a high amount of TYR; endogenous in cells; host or cells: B16F10 murine melanoma cells stimulated with α-MSH for 24 h; Triton X-100 lysate supernatant
T1 sequence (P11344 19-533): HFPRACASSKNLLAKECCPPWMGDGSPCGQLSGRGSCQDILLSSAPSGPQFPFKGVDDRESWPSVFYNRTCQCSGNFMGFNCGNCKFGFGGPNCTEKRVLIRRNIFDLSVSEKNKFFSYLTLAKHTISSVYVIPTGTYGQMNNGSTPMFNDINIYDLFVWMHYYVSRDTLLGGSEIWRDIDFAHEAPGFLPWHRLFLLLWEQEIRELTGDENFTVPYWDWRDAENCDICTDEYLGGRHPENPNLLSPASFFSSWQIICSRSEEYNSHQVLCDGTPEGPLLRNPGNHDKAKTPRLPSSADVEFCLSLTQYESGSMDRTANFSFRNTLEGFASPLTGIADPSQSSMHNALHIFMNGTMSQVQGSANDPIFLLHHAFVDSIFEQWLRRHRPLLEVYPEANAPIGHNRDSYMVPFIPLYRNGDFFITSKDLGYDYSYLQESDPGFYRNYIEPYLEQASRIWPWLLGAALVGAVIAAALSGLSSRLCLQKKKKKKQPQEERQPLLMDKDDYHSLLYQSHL
Experimental: To examine the direct effect of a drug on the catalytic activity of TYR, in vitro experiments were undertaken. Lysate of B16F10 cells stimulated with α-MSH for 24 h was used as a murine TYR preparation. Human TYR preparation was the lysate of human embryonic kidney 293 cells constitutively expressing human TYR (HEK293-TYR). […] The TYR activity assay mixture (200 μL) consisted of 100 mM sodium phosphate buffer (pH 6.8), TYR preparation (40 μg protein), a drug at various concentrations, 1.0 mM L-tyrosine, and 42 μΜ L-DOPA. For enzyme kinetic study, the concentrations of L-tyrosine plus L-DOPA were varied while their relative ratio was kept the same as the standard assay condition. […] The reactions were also performed in the absence of a TYR preparation to correct for the effects of non-enzymatic reactions. Enzyme activity was calculated as follows: activity (% control) = (C−D)/(A−B) × 100, where A and B are the absorbance changes of the control group with and without enzyme, respectively, while C and D are the absorbance changes of the test group with and without enzyme, respectively.

[1] = Copper chelating activity assay (pyrocatechol violet); format: physicochemical; settings: 200 μM test compound, 200 μM copper ions, 200 μM pyrocatechol violet, absorbance 632 nm
Experimental: Copper chelating activity was determined by using pyrocatechol violet (Sigma-Aldrich). […] The reaction mixture containing a potential chelator at varied concentrations, 200 μM CuSO4, and 200 μM pyrocatechol violet was incubated at 25 °C for 20 min, and its absorption spectra were recorded using a Shimadzu UV-1650PC spectrophotometer (Shimadzu Corporation, Kyoto, Japan). Copper chelating activity was evaluated by the change in the absorbance of pyrocatechol violet at 632 nm.

B16-F10 cells = experiment: Melanin content assay (extracellular and intracellular); format: cell-based, murine; settings: K8 1–10 µM, 100 nM α-MSH
Experimental: The intracellular melanin retained in cells and extracellular melanin secreted from cells were separately determined. B16-F10 cells were plated in 6-well plates (1.2 × 10^4 cells per well), cultured for 24 h, treated with a test drug at various concentrations for 60 min, and stimulated with 100 nM α-MSH for 72 h. The conditioned medium was evaluated to determine the extracellular melanin content. Adherent cells were extracted with 10% dimethyl sulfoxide solution containing 1.0 M sodium hydroxide at 60 °C for 60 min, and melanin content in the extract was estimated by measuring the absorbance at 400 nm and normalized to the total protein content of the cells.

[2] = test system: TYR, TYRP1, DCT and MITF mRNA in B16-F10 cells; experiment: qRT-PCR analysis of melanogenic gene mRNA; format: cell-based, murine; settings: 100 nM α-MSH, 12 h, normalized to GAPDH
Experimental: After B16-F10 cells were treated with drug and/or α-MSH, cellular RNA was extracted using an RNeasy kit (Qiagen, Valencia, CA, USA) and the complementary DNA (cDNA) was synthesized by reverse transcription using a High-Capacity cDNA Archive Kit (Applied Biosystems, Foster City, CA, USA). qRT-PCR was conducted using a StepOnePlus™ Real-Time PCR System (Applied Biosystems). The reaction mixture (20 μL) comprised SYBR® Green PCR Master Mix (Applied Biosystems), 60 ng cDNA, and 2 pmol gene-specific primer sets (Macrogen, Seoul, Korea).
The reaction protocol was as follows: initial incubation at 50 °C for 2 min; DNA polymerase activation at 95 °C for 15 min; and annealing and extension at 60 °C for 1 min. In each PCR run, the melting curve was checked to confirm the homogeneity of the PCR product. The mRNA expression levels of the gene of interest were determined using the comparative Ct method, and normalized to the internal reference GAPDH [59]. In this method, Ct is defined as the number of PCR cycles required for the signal to exceed the threshold. Fold changes in the test group compared to the control group were calculated as 2^−ΔΔCt, where ΔΔCt = ΔCt(test) − ΔCt(control) = [Ct(gene, test) − Ct(reference, test)] − [Ct(gene, control) − Ct(reference, control)].

[3] = test system: tyrosinase (TYR) activity in B16-F10 cells; experiment: Cellular TYR activity assay (lysates of treated cells); format: cell-based, murine; settings: 100 nM α-MSH, 24 h, cell lysates
Experimental: After B16-F10 cells were treated with drug and/or α-MSH, the TYR activity of cell extracts was determined by an indirect spectrophotometric method to monitor dopachrome formation with L-tyrosine plus L-DOPA as the substrates. Total cellular protein was extracted from the treated cells using a lysis buffer of 10 mM Tris-HCl buffer (pH 7.4) containing 120 mM NaCl, 25 mM KCl, 2.0 mM EDTA, 1.0 mM EGTA, 0.5% Triton X-100, and a protease inhibitor cocktail (Roche, Mannheim, Germany) at 4 °C, followed by centrifugation at 13,000× g for 15 min. The TYR activity assay mixture (200 μL) consisting of 100 mM sodium phosphate buffer (pH 6.8), 1.0 mM L-tyrosine, and 42 μΜ L-DOPA was incubated with 40 μg cellular protein extract at 37 °C, and changes in absorbance at 475 nm over time were measured using a Spectrostar Nano microplate reader.

IC50 (murine TYR; B16F10 cell-free extract, L-tyrosine plus L-DOPA): 1.5 µM | inhibition type (Lineweaver–Burk plots) (murine TYR; murine TYR, varying substrate concentrations): competitive type of inhibition
Compound: O=C(NO)c1ccc(CC(=O)N(CCO)c2ccccc2)cc1 [K8, 4-((hydroxyamino)carbonyl)-N-(2-hydroxyethyl)-N-phenyl-benzeneacetamide]
copper ions chelated [1]: 27% | intracellular melanin content, normalized for total cellular protein (B16-F10 cells; cell extracts): suppressed by K8 in a dose-dependent manner | extracellular melanin content, normalized for total cellular protein (B16-F10 cells; conditioned medium): suppressed by K8 in a dose-dependent manner | DCT mRNA level [2]: not significantly affected | MITF mRNA expression [2]: not significantly affected | TYR mRNA level [2]: not significantly affected | TYRP1 mRNA level [2]: not significantly affected | cellular TYR activity [3]: attenuated; also recorded: only partially lowered by 10 µM K8
